Results as given in US20240325382A1, “COMPOSITIONS AND METHODS FOR TREATING ANEMIA ASSOCIATED WITH A RIBOSOMAL DISORDER” (Disc Medicine, Inc., priority 2021, published 2024).
“Also recorded” adds a separate entry of the source.

Key:
Assay type in all cases: cell-based
[1] = system: RPS19 protein; assay: RPS19 protein levels by western blot in TF-1 stable cell lines; details: TF-1 stable line, doxycycline-induced shRNA, by day 5
Procedure: To generate an RPS19 deficient Diamond blackfan anemia (DBA) model, a TF-1 erythroid cell line was transduced with lentivirus encoding shRNAs targeting RPS19 (referred to as “shRNA #a” and “shRNA #b”) and a scrambled shRNA control (referred to as “Scramble shRNA” or “Scrambled”) (See Table 1). Stable cell lines were generated by selecting the infected cells with puromycin (1 ug/ml) for three weeks. The shRNA expression is doxycycline inducible. In the stable cell lines, RPS19 mRNA expression was measured using qRT-PCR after two (FIG. 1A) and four (FIG. 1B) days of doxycycline treatment. […] Further, RPS19 protein levels were decreased by more than 70% by shRNA #b by day 5 (FIG. 2A and FIG. 2B). The antibodies used in determining the RPS19 protein levels are described in Table 1.

[2] = system: TF-1 cells; assay: Cell growth of TF-1 stable lines by cell counting with trypan blue staining; details: 6 days of culture with doxycycline; for growth inhibition (cell count): EPO; for effect on cell proliferation (cell count) compared to scrambled shRNA: GMCSF (2 ng/ml)
Description: RPS19 knockdown in TF-1 cells has been previously reported to adversely affect the growth of erythroid cells due to an imbalance in heme and globin synthesis. See, e.g., Yang, Z. et al. Sci Transl Med 8, 338ra67 (2016). The TF-1 cell line is a cell line of immature erythroid origin that requires cytokines such as granulocyte-macrophage colony-stimulating factor (GMCSF) or erythropoietin (EPO) for its growth. The cell growth capability of TF-1 stable lines shRNA #a, shRNA #b, and scrambled shRNA were assessed in vitro by cell counting after 6-days of cell culture in the presence of doxycycline induction. Cells were washed from regular growth media and seeded in equal numbers into media containing either GMCSF (2 ng/ml), a growth factor that induces proliferation of the TF-1 cells, or EPO (Ing/ml), a hormone that induces growth of the TF-1 cells and induces their differentiation along the erythroid lineage. Cell growth was monitored by counting cells with trypan blue staining (FIG. 3A and FIG. 3B).

[3] = system: TF-1 cells; assay: Cell viability of TF-1 stable lines by CellTiter-Glo (CTG); details: GMCSF and EPO stimulus, doxycycline, 96-well plates
Procedure: Similarly, the cell growth capability of TF-1 stable lines shRNA #a, shRNA #b, and scrambled shRNA was assessed in vitro by cell viability assay. As described above, washed cells were seeded into 96 well plates in equal numbers in media containing either GMCSF or EPO (FIG. 4A and FIG. 4B) on separate plates for each day of readout. Cell viability was measured using the CellTiter-Glo® (CTG), which determines the number of viable cells in culture by quantifying ATP, which indicates the presence of metabolically active cells.

[4] = system: TF-1 cells expressing scrambled shRNA; assay: Cell number after bitopertin treatment, scrambled shRNA TF-1 cells; details: 4 nM or 37 nM bitopertin, 2 days (day 4 to day 6), doxycycline and GMCSF
Procedure: (§1) Prior to treatment with bitopertin, the TF-1/shRNA #a cells were treated with doxycycline for 4 days to induce RPS19 knockdown by shRNA #a. TF-1/scramble shRNA cells were treated similarly as an experimental control. On day 4, both TF-1/shRNA #a and TF-1/scramble shRNA cells were seeded to the 12-well cell culture plates at a density of 1×10^5 cells per well. Bitopertin was added to the cells in 12-well plates for 48 hours of treatment from day 4 to day 6. […] Each of the TF-1 cells were also treated with doxycycline and GMCSF, which induces shRNA expression and stimulates proliferation, for the entirety of the experiment.
(§2) We investigated if blocking the uptake of heme biosynthesis pathway precursor glycine into cells with bitopertin could restore the balance between heme and globin and reverse the anti-proliferative effects caused by RPS19 knockdown. To test this hypothesis, similarly as above, washed cells were seeded in 6-well plates with doxycycline and GMSCSF to induce shRNA expression and cell proliferation for four days. On day 4, 1×10^5 cells were seeded into a 12-well plate with 4 nM or 37 nM bitopertin. After two days of treatment with bitopertin, we enumerated cell numbers.

[5] = system: TF-1 shRNA #a cells; assay: Cell number after bitopertin treatment, RPS19 knockdown TF-1 cells; details: 4 nM or 37 nM bitopertin, 2 days (day 4 to day 6), doxycycline and GMCSF
Procedure: as §1, §2

[6] = system: TF-1/shRNA #b cells; assay: CTG cell viability after bitopertin treatment, RPS19 knockdown TF-1 cells; details: varying doses, 1 μM top concentration, 9 points 3-fold dilutions, 2 days, doxycycline and GMCSF
Procedure: The cells were treated with (1) doxycycline during the entire cell culture period to induce shRNA expression; (2) GMCSF during the entire 6 days of cell culture period to induce proliferation. At day 4 of cell culture, the TF-1 cells were seeded to the 96-well cell culture plates at a density of 1×10^4 cells per well, and were treated with varying doses of bitopertin for two days of the culture period, from day 4 to day 6.
Further, in a similar setup, an equal number of cells were seeded on to 96-well plates after four days of doxycycline treatment and incubated with varying doses of bitopertin (1 μM top concentration, 9 points 3-fold dilutions) for two days and on day 6, we performed a CTG assay to measure the cell viability. The cells were cultured in the presence of GMCSF during the entire cell culture period.

Row | Compound | decrease of RPS19 protein levels [1] | growth inhibition (cell count) [2] | effect on cell proliferation (cell count) compared to scrambled shRNA [2] | cell growth inhibition (CTG cell viability) compared to scrambled shRNA [3] | effect on cell number of scrambled shRNA cells [4] | effect on cell number of RPS19 knockdown cells [5] | effect on cell viability (CTG) compared to TF-1/scrambled shRNA cells [6]
1 | shRNA #b: lentivirus-encoded, doxycycline-inducible shRNA targeting RPS19, GCTTGCTCCCTACGATGAGAA (SEQ ID NO: 2) | more than 70% | dose-dependent growth inhibition | more substantial effect | high degree inhibition in cell growth | – | – | –
2 | C[C@H](Oc1ccc(S(C)(=O)=O)cc1C(=O)N1CCN(c2ncc(C(F)(F)F)cc2F)CC1)C(F)(F)F [bitopertin] | – | – | – | – | did not affect | reverses the anti-proliferative effects; also recorded: protective effect | dose-dependent bitopertin protective effect
3 | shRNA #a: lentivirus-encoded, doxycycline-inducible shRNA targeting RPS19, GAGATCTGGACAGAATCGC (SEQ ID NO: 1) | – | dose-dependent growth inhibition | moderate effect | moderate cell growth inhibitory effects | – | – | –
